We go through one molecule from ChEMBL document CHEMBL5532666 (J Med Chem, 2024).

The target in data set [1] is T1, Aurora kinase A (Homo sapiens) (UniProt O14965).
T1 sequence (whole entry): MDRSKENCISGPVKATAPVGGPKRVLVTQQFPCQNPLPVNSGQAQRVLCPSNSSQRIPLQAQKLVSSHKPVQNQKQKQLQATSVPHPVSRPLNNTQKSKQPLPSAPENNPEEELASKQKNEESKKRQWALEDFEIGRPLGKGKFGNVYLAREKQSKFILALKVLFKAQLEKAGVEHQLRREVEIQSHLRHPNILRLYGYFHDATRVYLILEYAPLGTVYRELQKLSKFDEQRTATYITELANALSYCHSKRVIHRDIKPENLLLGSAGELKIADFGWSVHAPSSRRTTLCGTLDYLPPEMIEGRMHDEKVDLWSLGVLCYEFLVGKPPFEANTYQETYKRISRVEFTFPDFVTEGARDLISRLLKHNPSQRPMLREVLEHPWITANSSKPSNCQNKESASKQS
The data set can be described thus: Binding affinity to STK6 (unknown origin) assessed as thermal stabilization by measuring change in melting temperature by DSF analysis.

Data set [2] relates to HCT-116. As to the kind of experiment: Cell cycle arrest in human HCT-116 cells expressing […] assessed as G2/M phase cells at 10 uM incubated for 72 hrs by Hoechst33342 staining based analysis (reference value: 38%). The data set is classed as functional.
Data set [3] has as its target T2, Serine/threonine-protein kinase 24 (Homo sapiens, UniProt Q9Y6E0). As to the kind of experiment: Binding affinity to C-terminal full length human MST3 expressed in intact HEK293T cells incubated for 2 hrs by NanoBRET assay. The data set is classed as cell-based.
Target sequence in this assay (Q9Y6E0 whole entry): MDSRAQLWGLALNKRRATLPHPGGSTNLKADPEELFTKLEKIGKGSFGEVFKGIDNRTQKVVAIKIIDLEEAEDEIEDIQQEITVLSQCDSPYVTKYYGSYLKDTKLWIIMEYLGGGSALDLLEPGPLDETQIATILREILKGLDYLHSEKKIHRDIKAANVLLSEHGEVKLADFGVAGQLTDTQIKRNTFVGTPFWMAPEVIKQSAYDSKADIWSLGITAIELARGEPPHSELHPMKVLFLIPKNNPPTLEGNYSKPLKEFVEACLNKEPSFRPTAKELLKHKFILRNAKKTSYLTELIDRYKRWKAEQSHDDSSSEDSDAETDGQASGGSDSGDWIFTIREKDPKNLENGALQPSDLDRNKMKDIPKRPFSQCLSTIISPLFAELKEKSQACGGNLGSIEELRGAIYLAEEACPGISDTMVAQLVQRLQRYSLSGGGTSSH
In data set [4] the test system is HCT-116. As to the kind of experiment: Cell cycle arrest in human HCT-116 cells expressing […] assessed as G1 phase cells at 1 uM incubated for 72 hrs by Hoechst33342 staining based analysis (reference value: 52%). The data set is classed as functional.
Data set [5] deals with T3, Serine/threonine-protein kinase 26 (Homo sapiens, UniProt Q9P289). As to the kind of experiment: Binding affinity to N-terminal 6His-tagged TEV fused MST4 (unknown origin) expressed in Escherichia coli BL21 (DE3) cells assessed as dissociation constant by ITC analysis. (In general: ITC needs no label: the signal is the heat of the interaction.)
Target sequence in this assay (Q9P289 whole entry, the tested form may be a part): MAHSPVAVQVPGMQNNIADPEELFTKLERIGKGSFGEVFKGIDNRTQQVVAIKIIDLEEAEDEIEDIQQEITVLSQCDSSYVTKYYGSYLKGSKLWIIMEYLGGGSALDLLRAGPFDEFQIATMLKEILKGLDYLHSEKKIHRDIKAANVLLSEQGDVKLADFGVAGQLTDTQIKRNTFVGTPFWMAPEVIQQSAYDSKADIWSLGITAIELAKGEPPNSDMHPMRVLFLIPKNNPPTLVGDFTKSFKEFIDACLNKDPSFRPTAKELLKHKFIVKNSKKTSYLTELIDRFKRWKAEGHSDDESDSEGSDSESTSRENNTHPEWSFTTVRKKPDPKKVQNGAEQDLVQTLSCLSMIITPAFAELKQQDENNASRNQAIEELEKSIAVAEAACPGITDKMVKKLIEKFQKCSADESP
The target in data set [6] is T3, Serine/threonine-protein kinase 26. As to conditions: dose 10.0 µM.
Target sequence in this assay (Q9P289 2-416 limits assumed): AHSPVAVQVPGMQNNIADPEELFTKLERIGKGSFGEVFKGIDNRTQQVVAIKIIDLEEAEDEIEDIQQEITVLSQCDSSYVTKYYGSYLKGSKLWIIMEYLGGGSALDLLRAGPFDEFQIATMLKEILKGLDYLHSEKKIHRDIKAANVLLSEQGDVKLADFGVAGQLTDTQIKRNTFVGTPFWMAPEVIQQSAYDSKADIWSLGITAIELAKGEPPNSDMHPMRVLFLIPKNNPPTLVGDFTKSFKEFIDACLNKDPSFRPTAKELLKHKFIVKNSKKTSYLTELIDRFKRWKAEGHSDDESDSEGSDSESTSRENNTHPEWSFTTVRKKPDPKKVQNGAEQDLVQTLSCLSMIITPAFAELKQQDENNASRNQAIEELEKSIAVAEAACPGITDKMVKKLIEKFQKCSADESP
Description: Binding affinity to recombinant MST4 (unknown origin) kinase domain assessed as thermal stabilization by measuring change in melting temperature at 10 uM by DSF analysis
For data set [7], the system named is HCT-116. The data set can be described thus: Cell cycle arrest in human HCT-116 cells expressing […] assessed as G2/M phase cells at 1 uM incubated for 72 hrs by Hoechst33342 staining based analysis (reference value: 38%). The data set is classed as functional.
Data set [8] has as its target LIM domain kinase 1 (Homo sapiens, UniProt P53667). As to the kind of experiment: Binding affinity to LIMK1 (unknown origin) expressed in permeabilized HEK293T cells incubated for 2 hrs by NanoBRET assay. The data set is classed as cell-based.
Data set [9] is described as follows: Metabolic stability in Sprague-Dawley rat liver microsomes assessed as parent compound remaining at 10 uM preincubated with NADPH for 5 mins followed by microsomal addition and measured upto 60 mins by HPLC analysis. The data set is classed as ADME, Microsome. The settings on record: time < 65 min, read-out: Stability.
Data set [10] addresses LIM domain kinase 2 (Homo sapiens, UniProt P53671). The data set can be described thus: Binding affinity to LIMK2 (unknown origin) expressed in permeabilized HEK293T cells incubated for 2 hrs by NanoBRET assay. The data set is classed as cell-based. A general note: BRET reads energy transfer from a luciferase to a nearby fluorophore.
The test system of data set [11] is HCT-116. The data set can be described thus: Cell cycle arrest in human HCT-116 cells expressing […] assessed as S phase cells at 10 uM incubated for 72 hrs by Hoechst33342 staining based analysis relative to control. The data set is classed as functional.
In data set [12] the test system is HCT-116. The data set can be described thus: Cell cycle arrest in human HCT-116 cells expressing […] assessed as G1 phase cells at 10 uM incubated for 72 hrs by Hoechst33342 staining based analysis (reference value: 52%). The data set is classed as functional.
Data set [13] addresses Maternal embryonic leucine zipper kinase (Homo sapiens) (UniProt Q14680). As to the kind of experiment: Binding affinity to MELK (unknown origin) assessed as thermal stabilization by measuring change in melting temperature by DSF analysis. (In general: In DSF a fluorescence change marks the thermal transition of the protein.)
In data set [14] the target is T3, Serine/threonine-protein kinase 26. The data set can be described thus: Binding affinity to N-terminal 6His-tagged TEV fused MST4 (unknown origin) expressed in Escherichia coli BL21 (DE3) cells assessed as change in binding enthalpy by ITC analysis.
Target sequence in this assay (Q9P289 2-416 limits assumed): as above
Data set [15] deals with T2, Serine/threonine-protein kinase 24. The settings on record: dose 10.0 µM.
Target sequence in this assay (Q9Y6E0 whole entry, looked up): as the sequence (Q9Y6E0 whole entry) above
Description: Binding affinity to recombinant MST3 (unknown origin) kinase domain assessed as thermal stabilization by measuring change in melting temperature at 10 uM by DSF analysis
Data set [16] concerns the target T3, Serine/threonine-protein kinase 26. As to the kind of experiment: Inhibition of wildtype MST4 (unknown origin) assessed as residual activity at 1 uM relative to control.
Target sequence in this assay (Q9P289 2-416 limits assumed): as the sequence (Q9P289 2-416 limits assumed) above

Activity calls are given as the source filed them. The calls are words filed in the database; no cut-off is given here.

LIM domain kinase 1, sequence (P53667 whole entry, the tested form may be a part): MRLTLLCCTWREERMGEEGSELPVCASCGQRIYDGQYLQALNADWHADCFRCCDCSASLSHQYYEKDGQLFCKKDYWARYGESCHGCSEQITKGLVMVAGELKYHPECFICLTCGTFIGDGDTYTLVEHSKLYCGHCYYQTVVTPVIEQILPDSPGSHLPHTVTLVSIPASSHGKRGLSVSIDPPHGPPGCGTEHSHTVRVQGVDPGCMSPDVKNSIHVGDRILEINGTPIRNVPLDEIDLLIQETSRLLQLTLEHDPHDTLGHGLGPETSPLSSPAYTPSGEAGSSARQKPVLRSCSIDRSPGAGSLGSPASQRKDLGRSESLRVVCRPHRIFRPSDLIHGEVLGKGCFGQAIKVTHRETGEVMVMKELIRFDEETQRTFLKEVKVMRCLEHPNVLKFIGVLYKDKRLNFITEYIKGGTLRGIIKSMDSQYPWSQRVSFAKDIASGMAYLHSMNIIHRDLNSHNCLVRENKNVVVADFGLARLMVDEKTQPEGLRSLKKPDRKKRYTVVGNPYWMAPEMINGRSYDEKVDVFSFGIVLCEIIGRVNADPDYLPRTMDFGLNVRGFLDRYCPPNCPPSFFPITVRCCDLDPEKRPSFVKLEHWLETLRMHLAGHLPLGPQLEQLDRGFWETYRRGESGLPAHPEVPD
Maternal embryonic leucine zipper kinase (Homo sapiens), sequence (Q14680 whole entry, looked up, the tested form may be a part): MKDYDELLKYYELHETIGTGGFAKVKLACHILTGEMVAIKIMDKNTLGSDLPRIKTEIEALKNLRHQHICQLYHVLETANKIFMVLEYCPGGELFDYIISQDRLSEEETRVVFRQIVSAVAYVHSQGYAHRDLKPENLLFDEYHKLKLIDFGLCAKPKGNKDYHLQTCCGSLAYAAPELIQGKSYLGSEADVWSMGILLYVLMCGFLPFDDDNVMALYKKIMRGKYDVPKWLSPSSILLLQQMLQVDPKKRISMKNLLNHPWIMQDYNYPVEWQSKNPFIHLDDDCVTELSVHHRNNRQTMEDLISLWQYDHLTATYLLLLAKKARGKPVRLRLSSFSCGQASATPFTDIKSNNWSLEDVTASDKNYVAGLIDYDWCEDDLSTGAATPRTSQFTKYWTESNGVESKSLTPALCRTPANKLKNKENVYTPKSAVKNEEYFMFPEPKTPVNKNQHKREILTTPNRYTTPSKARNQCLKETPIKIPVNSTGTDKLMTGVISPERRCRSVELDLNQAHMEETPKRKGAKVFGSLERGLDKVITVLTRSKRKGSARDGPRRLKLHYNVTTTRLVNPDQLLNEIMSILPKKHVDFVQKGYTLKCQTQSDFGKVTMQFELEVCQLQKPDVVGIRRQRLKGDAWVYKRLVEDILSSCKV
LIM domain kinase 2, sequence (P53671 whole entry, the tested form may be a part): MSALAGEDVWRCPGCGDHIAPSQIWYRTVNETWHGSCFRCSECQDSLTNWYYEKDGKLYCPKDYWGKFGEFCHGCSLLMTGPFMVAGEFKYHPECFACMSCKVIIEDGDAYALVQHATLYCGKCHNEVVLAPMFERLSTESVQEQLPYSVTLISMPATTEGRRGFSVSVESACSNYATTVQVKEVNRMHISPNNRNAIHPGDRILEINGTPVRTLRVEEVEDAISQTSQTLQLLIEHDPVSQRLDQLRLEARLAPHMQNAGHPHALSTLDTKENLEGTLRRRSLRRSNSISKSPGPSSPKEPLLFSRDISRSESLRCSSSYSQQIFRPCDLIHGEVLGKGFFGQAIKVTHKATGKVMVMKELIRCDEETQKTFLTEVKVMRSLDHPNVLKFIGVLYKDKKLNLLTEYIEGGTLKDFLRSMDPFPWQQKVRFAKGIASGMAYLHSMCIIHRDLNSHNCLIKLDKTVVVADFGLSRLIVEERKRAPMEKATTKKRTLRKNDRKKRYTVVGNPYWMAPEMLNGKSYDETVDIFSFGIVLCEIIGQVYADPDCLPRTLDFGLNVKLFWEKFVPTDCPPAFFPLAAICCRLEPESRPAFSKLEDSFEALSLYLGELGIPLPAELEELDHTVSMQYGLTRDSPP

By ΔTm is commonly meant the change in melting temperature against a reference sample. Usually EC50 stands for the concentration at which the effect is half-maximal. The term Kd denotes the constant that tells how readily two partners part at equilibrium. As for `O=C1NCCCCCNc2nc(c3ccccc3n2)Nc2cc1[nH]n2`, the ΔTm in data set [1] amounted to 5.1 °C; in data set [6] it was 7.4 °C; in data set [13], 5.1 °C; in data set [15] it was 7.5 °C. Besides, the Activity in data set [2] worked out at 33%; in [4] it was 57%; in [7], 33%; in data set [11] it was 27%; in data set [12] it was 40%; in data set [16], 18%. The EC50 turned out to be 110 nM in data set [3], 2480 nM in data set [8] and 1000 nM in data set [10]. In addition, the Kd in [5] came to 115 nM. In data set [9], the remaining at 1 h, 10 µM was 88%. Besides, the result in [14] was Active.
